SMILES | melting point
CC(=NO)c1ccc2c(c1)C(=NNc1cccc(S(N)(=O)=O)c1C)C(=O)N2 | > 250 °C
O=C(O)CCc1cc2nc(Cl)ccc2n1S(=O)(=O)c1ccc2c(c1)CCN2 | 79 °C
Cc1nn(C)c2nc3ccccc3c(NCc3ccccc3)c12 | 105 °C
Cc1nc(N)c2nc(CO)n(NC(C)C)c2c1C | 257 to 259 °C
CCN1C(=O)C(=C2Oc3ccccc3N2CC)SC1=S | 165 to 166 °C
S=c1[nH]cnn1C[C@]1(c2ccccc2)O[C@@H]1c1ccc(Cl)c(Cl)c1Cl (relative stereo) | 168 to 171 °C
Cc1nc2ccccc2c(=O)n1CCN1CCC(Nc2nc3ccccc3n2Cc2ccc(F)cc2)CC1 | 186 °C
CC(C)Cn1c(CNC(=O)OC(C)(C)C)c(-c2cccc(F)c2)c2cc(C(N)=O)ccc2c1=O | 147 to 149 °C
C[Si](C)(C)C#Cc1c(C#N)nn(-c2c(Cl)cc(OC(F)(F)F)cc2Cl)c1N | 152 °C
COc1ccc(Cc2sccc2OC2OC(COC(C)=O)C(OC(C)=O)C(OC(C)=O)C2OC(C)=O)cc1 (centres undefined) | 116 to 118 °C
O=C(O)CCc1ccc(NS(=O)(=O)c2ccc(Cl)cc2)cn1 | 144 to 146 °C
CN(C)CCN(C1CCN(C)CC1)S(=O)(=O)c1ccc(Nc2nccc(Nc3ccc(F)cc3)n2)cc1 | 135 to 137 °C
CCc1nc2ccccc2c(=O)n1-c1ccc(F)cc1 | 178 °C
O=C(NC(CC1CCCC1)C(=O)NC1CCCN(C(=O)c2ccccc2)CC1=O)c1ccco1 (centres undefined) | 97 to 100 °C
CN(C)C(=O)CCC(NC(=O)C=Cc1ccco1)C(=O)N(C)C (centres undefined) | 178 to 180 °C
NS(=O)(=O)c1cc(C(=O)O)c(NCc2ccccc2)cc1Oc1ccccc1 | 237 to 239 °C
C(=C\c1nc(COc2ccc(CCCn3ccnc3)cn2)co1)/c1ccccc1 | 120 to 121 °C
C#CC(C)(C)N=C(NC#N)SC | 128 to 130 °C
CCOC(=O)c1cc2ccc(F)c(C)c2[nH]1 | 149 °C
C=CCc1cc(N2CCN(c3ccncc3)CC2)ccc1O | 180 to 182 °C
ONCC1CCCCC1 | 61 to 63 °C
CCCCCc1c(C(C)C)nc(C(C)C)c(CNCC)c1-c1ccc(F)cc1 | 48 to 50 °C
CN(Cc1cc2c3c(c1)c(=O)c(C(=O)NCc1ccc(Cl)cc1)cn3CC(=O)N2CCO)C[C@@H](O)c1ccco1 | 166 to 167 °C
O=C(CC1CC1)N[C@H]1CC[C@H](CCN2CCN(c3nccc4c3CCO4)CC2)CC1 | 193 °C
CCCc1nn(-c2ccc(C(F)(F)F)cn2)cc1CCCOc1cc(CC(=O)O)ccc1OC | 124 to 126 °C

SMILES | melting point
CCOCC(=O)Nc1occ(C(C)(C)C)c1C#N | 98 °C
OC(CSCc1ccc(Cl)cc1)C12CC3CC(CC(C3)C1)C2 (centres undefined) | 74 to 79 °C
N#CC1CN1C(=O)CCC(N)=O (centres undefined) | 68 to 72 °C
Fc1ccc(C2(Cn3nc[nH]c3=S)OC2c2ccccc2Cl)cc1F (centres undefined) | 165 °C
CN1CCN(c2ccc(-c3ccc4c(c3)C=C(C(=O)Nc3ccc(CN(C)C5CCOCC5)cc3)CCO4)cc2)CC1 | 220 to 221 °C
CCCCCC/C=C\CCCCCCCC(=O)N[C@H]1CCCNC(=O)C1 | 67 to 68 °C
O=C(NCc1ccccc1Cl)c1ccc(Br)cc1 | 133 °C
O=C(NCc1ccc(F)c(F)c1)c1cc(-n2cnn(Cc3ccc(F)cc3)c2=O)n[nH]1 | 208 to 209 °C
O=C(OCC(Cl)(Cl)Cl)Oc1cc2occ(C(=O)O)c(=O)c2cc1OC(=O)OCC(Cl)(Cl)Cl | 166 to 167 °C
C#CC(O)c1cccc2ccncc12 (centres undefined) | 138 to 139 °C
CN1C2=C(C(=O)OC2)C(c2ccncc2)c2cc3c(cc21)OCO3 (centres undefined) | 255 °C
Cc1nc(C(Cl)(Cl)Cl)nc(OC(=O)N(C)C)c1Cl | 87 to 88 °C
Cc1c(-c2ccccc2)sc2nc(Nc3ccccc3)[nH]c(=O)c12 | 270 to 290 °C
CN(C)C(=O)c1ccccc1[N+](=O)[O-] | 74 to 76 °C
CN1CCN(c2cccc3c2C[C@H](NC(=O)c2ccc(Br)cc2)CC3)CC1 | 200 to 201 °C
C=CC(=O)OCc1c(Br)c(Br)c(Br)c(COC(=O)C=C)c1Br | 105 to 108 °C
CCOC(=O)c1ccc(OCc2ccc(Cl)cc2)cc1 | 83 to 84 °C
CCOC(=O)C=CC(=CN)C(=O)OCC | 109 °C
CCNCc1cnc2c(C)c(NC(=O)c3ccc(OC[C@@H]4CCCO4)cc3)ccc2c1 | 149 to 151 °C
CCOC(=O)Cn1c(C)c(-c2ccnc3cc(Cl)ccc23)c2cc(NC(C)=O)ccc21 | 281 to 284 °C
CNc1nnc(SCc2ccccc2)s1 | 87 to 89 °C
CCN(CC)CCCN(Cc1ccc(COc2cccc3c2CN(C2CCC(=O)NC2=O)C3=O)cc1)C(=O)OC(C)(C)C (centres undefined) | 140 to 142 °C
O=C(NCc1ccc(Cl)cc1)c1cnc2ccc(CC3CCOCC3)cc2c1O | 184 to 185 °C
CNc1ncc(-c2ccccc2)c(-c2ccccc2)n1 | 136 to 138 °C
O=C(O)c1cc(F)c(F)c(C2CC2)c1F | 95 to 97 °C

SMILES | melting point
CCOC(=O)C1=C(C)NC(N=CN(C)C)=C(C(=O)OCC)C1c1cccc([N+](=O)[O-])c1 (centres undefined) | 150 °C
OC(c1ccccc1)c1cc2ccnc(N(Cc3ccccc3)Cc3ccccc3)c2[nH]1 (centres undefined) | 53 to 61 °C
Nc1scc2c(C(=O)O)nn(-c3ccc(Cl)cc3)c(=O)c12 | > 300 °C
N#Cc1cc(-c2ccc(Cl)cc2)cnc1Cl | 185 to 187 °C
CC1(C)C=C(I)C(=O)C(C)(C)C1 | 41 to 42 °C
O=C(O)Cc1ccc2c(c1)C(=O)c1cc(Cl)ccc1CS2 | 187 to 189 °C
COC(=O)c1ccc(NC(=O)c2cc(C(C)C)c(C(C)C)s2)cc1 | 180 to 182 °C
O=C(c1cc2ccc(F)cc2[nH]1)C12CC3CC(CC(C3)C1)C2 | 242 to 244 °C
CC(C)(CCCCCCCCCCCCC1(C(=O)O)CC1)C(=O)O | 85.6 to 86.7 °C
CC(C)C(CO)NC(=O)c1nsc2ccc(-n3c(=O)cc(C(F)(F)F)n(C)c3=O)cc12 (centres undefined) | 120 °C
COC(=O)c1cc(CBr)cnc1C1=NC(C)(C(C)C)C(=O)N1C(=O)c1ccccc1 (centres undefined) | 88 to 119 °C
CCCC[C@@](C)(O)C(=O)O | 67.8 to 67.9 °C
CC(C)NC1=Nc2cccnc2SC1 | 135 to 139 °C
Cc1c(-c2cc(C(C)(C)C)c(O)c(C(C)(C)C)c2)nc2n1CCS2 | 258 to 261 °C
O=C(NC1=NCCCN1)Nc1c(Cl)cccc1Cl | 179 to 180 °C
NC(=O)c1ncn2c(-c3cc(Cl)ccc3Cl)ccnc12 | 230 to 234 °C
CN(Cc1cc(C(F)(F)F)cc(C(F)(F)F)c1)C(=O)c1c(-c2ccc(F)cc2)c2cnccc2c(=O)n1C | 136 to 138 °C
C[C@]1(COc2ccc3cc(N4CCC(Oc5ccc(OC(F)(F)F)cc5)CC4)ccc3c2)Cn2cc([N+](=O)[O-])nc2O1 | 205 to 208 °C
O=C(O)Cc1c(C(=O)c2ccc3c(c2)CCO3)[nH]c2cc(Cl)ccc12 | 217 °C
CCOC(=O)c1cc2c(=O)n(C(C)C)c3ccccc3n2c1 | 169 to 170 °C
O=C(Nc1ccc(C(=O)N2CC(C(=O)O)Cc3ccccc32)cc1)c1cc(Cl)cc(Cl)c1 (centres undefined) | 221 to 223 °C
O[C@@H]1CCN(c2ccc3nnn(Cc4ccc5ncccc5c4)c3n2)C1 | 167 to 169 °C
CC(CCCc1ccc(F)cc1)c1cc(O)c2c(c1)OC(C)(C)C1=C2CN(CC(=O)NC(N)=O)CC1 (centres undefined) | 133 to 134 °C
OCC(O)Cn1cnc2c(Cl)nc3ccccc3c21 (centres undefined) | 223 to 225 °C
CC(Cl)=CCOc1ccc(C(=O)O)nc1 | 96 to 98 °C

SMILES | melting point
CCCCc1ncc(/C=C2\C(=O)NC(=O)N2Cc2ccccc2)n1Cc1ccc(C(=O)O)cc1 | 297 to 298 °C
CC(C)(C)c1ccc(OP2N(C(C)(C)C)P(Oc3ccc(C(C)(C)C)cc3C(C)(C)C)N2C(C)(C)C)c(C(C)(C)C)c1 (centres undefined) | 205 to 210 °C
Cc1cc(S(=O)(=O)c2ccccc2)ccc1[N+](=O)[O-] | 70 to 71 °C
CCC(=O)Nc1ccc(CN2C(=O)[C@H]3CCC[C@H]3N(C(=O)CN3C(=O)c4ccccc4C3=O)c3ccccc32)cc1 (relative stereo) | 286 °C
CCCN(CCCCNc1ncc(Cc2ccnc(O)c2)c(=O)[nH]1)c1ccccn1 | 138 to 140 °C
COC(=O)c1c(F)cc(OCCNC(=O)C2Cc3ccccc3N2S(=O)(=O)c2ccc(-c3ccc(F)cc3OC)cc2)cc1F (centres undefined) | 65 to 76 °C
COc1c(C)c(C(=O)c2ccc3nc(C)[nH]c(=O)c3c2)n2ccccc12 | 290 °C
O=C1C=C2C=CC=C2O1 | 81 to 83 °C
Cc1ccc(Cn2nc(C(=O)NC3CCCCC3C)cc2-c2ccc(Cl)c(Cl)c2)cc1Cl (centres undefined) | 165 °C
O=C1Cc2cc([N+](=O)[O-])ccc2Sc2cc(Br)ccc21 | 242 to 245 °C
O=C(O)Cc1ccc2[nH]c(=O)[nH]c2c1 | 161 °C
CCCc1c(COc2ccc(Cc3nnn(CCCS(C)(=O)=O)n3)cc2)ccc(C(C)=O)c1O | 89 to 91 °C
COc1ccc(Cn2nnc(-c3cccc(C(=O)Cl)c3)n2)cc1 | 122 to 124 °C
Clc1cccc(OC2CCN(CCc3c[nH]c4ccccc34)CC2)c1 | 120 to 123 °C
C[C@@]1(C(=O)O)CSC(Cc2cc(F)cc(F)c2)=N1 | 120 to 122 °C
Ic1nnnn1Cc1ccccc1 | 122 °C
Cc1cc(NC(=O)C(C)(O)COc2cccc(C#N)c2)ccc1[N+](=O)[O-] (centres undefined) | 107 to 110 °C
CC(C)(C)NC(=O)c1ncccc1CC(=O)C1CCC(C(=O)O)CC1 (centres undefined) | 160 °C
Brc1ccc(-c2cc(-c3ccc(Br)cc3)cc(-c3ccc(Br)cc3)c2)cc1 | 254 to 255 °C
CC12CCCCC1(O)CCC1C2CCC2(C)C1CC13OCCOC12OCCO3 (centres undefined) | 160 to 162 °C
CCc1cn(C[C@@H](C)O)c2cc(Cl)c(F)cc12 | 112 to 114 °C
COc1cc(COc2nn(-c3ccccc3)cc2C=O)ccc1OCc1nc(N2CCOCC2)sc1C | 149 to 150 °C
COCCOc1cc2ncc(C#N)c(Cl)c2cc1O | 174 to 175 °C
COc1cc(COc2nn(-c3ccccc3)cc2/C=C/C(C)=O)ccc1OCc1nc(-c2ccco2)oc1C | 177 to 178 °C
